Data set [1] is described as follows: Peptide stability assay with pepsin (RP-HPLC). Format: in vitro ADME. The following applies: isolated enzyme pepsin, pepsin 50:1 (w/v) in 0.2 M HCl, 37 °C, peptide 0.1 M [sic], RP-HPLC peak area as % of initial, read-out: structural integrity retained (percentage of peptide remaining) after incubation with pepsin. The protocol:
(§1) Stability studies were conducted using purified cocotide tC1 (0.1 M) and S-alkylated tC1 (iodoacetamido) under specific buffer conditions. Pepsin stability was assessed by incubating the samples in a mixture of pepsin at a ratio of 50:1 (w/v) in 0.2 M HCl at 37 °C. For trypsin stability, the samples were treated with trypsin in 0.1 M ammonium bicarbonate buffer (pH 8) at 37 °C. Analysis of stability assays involved collecting samples at various time points, which were then analyzed by reversed-phase high-performance liquid chromatography (RP-HPLC) using a linear gradient of mobile phase A (0.05% trifluoroacetic acid in water) and mobile phase B (0.05% trifluoroacetic acid in acetonitrile) on an Aeris Peptide XB-C18 column (Phenomenex). The stability results were expressed as a percentage of the initial concentration and determined by the peak area of the HPLC profile.
(§2) 7 Proteolytic stability assays of cocotide tC1. Cocotide tC1 was incubated with either pepsin or trypsin at 37 °C for up to 6 h. S-alkylated tC1 was used as the control. At different time points, samples of cocotide tC1 and the control were quantified using reversed-phase high pressure liquid chromatography (RP-HPLC). The relative peak areas of the RP-HPLC profiles were used to quantify the percentage of peptides remaining after incubation with pepsin or trypsin.

Data set [2] is described as follows: Peptide stability assay with trypsin (RP-HPLC). Type of data set: in vitro ADME. The following applies: isolated enzyme trypsin, trypsin in 0.1 M ammonium bicarbonate buffer pH 8, 37 °C, peptide 0.1 M [sic], RP-HPLC peak area as % of initial, read-out: structural integrity retained (percentage of peptide remaining) after incubation with trypsin. The protocol:
as §1, §2

A short description of data set [3]: Iron-binding assay (High-Select Fe-NTA spin column, RP-HPLC of flowthroughs). Particulars: 1 h at room temperature, six water washes, elution. On the procedure:
The High-Select Fe-NTA Phosphopeptide Enrichment Kit (Thermo Fisher Scientific, USA) was used to investigate the iron-binding abilities of cocotide tC1. Briefly, cocotide tC1 was suspended in the binding buffer provided. The spin column was first equilibrated by adding 200 μL of the binding buffer and then centrifuged at 1000 × g for 30 s (Thermo Fisher Scientific, USA). The suspended peptide sample was added to the spin column and incubated for 1 h at room temperature. The sample was then centrifuged again at 1000 × g for 30 s, and the flowthrough was collected. The spin column was then washed six times with 100 μL of deionized water. Each time, the sample was centrifuged at 1000 × g for 30 s before collecting the flowthrough. Finally, 100 μL of the elution buffer provided was added, and the sample was centrifuged at 1000 × g for another 30 s before collecting the final eluted flowthrough. All eight flowthroughs were analyzed by using RP-HPLC.

Where a SMILES comes first, the peptide text is derived from it. Bridges are numbered along the chain shown (N, C = ends). Where only a bound is given, the exact number is not on record here.

For orientation: fraction remaining means what is left of the initial amount, in per cent. In the case of `CC[C@H](C)[C@@H]1NC(=O)CNC(=O)[C@H](CCSC)NC(=O)[C@@H]2CCCN2C(=O)[C@H](Cc2ccc(O)cc2)NC(=O)[C@H](CC(C)C)NC(=O)[C@@H]2CSSC[C@@H]3NC(=O)[C@H](Cc4ccccc4)NC(=O)CNC(=O)CNC(=O)[C@H](C)NC(=O)[C@H](CO)NC(=O)[C@H](CC(C)C)NC(=O)[C@@H](N)CSSC[C@@H]4NC(=O)[C@H](CSSC[C@H](NC1=O)C(=O)N[C@@H](Cc1ccc(O)cc1)C(=O)NCC(=O)N[C@@H](CO)C(=O)NCC(=O)N[C@H](C(=O)O)CSSC[C@H](NC(=O)[C@H](CC(N)=O)NC(=O)CNC4=O)C(=O)NCC(=O)N2)NC(=O)[C@H](CC(=O)O)NC(=O)[C@H](CCSC)NC(=O)[C@@H]1CCCN1C(=O)[C@H](CC(N)=O)NC(=O)[C@H](Cc1ccccc1)NC(=O)[C@H](CCSC)NC3=O` [cocotide tC1] (H-CLSAGGFCMFNPMDCCGNCGCLYPMGICYGSGC-OH; disulfide 1-16, 8-21, 15-28, 19-33; N-terminus and C-terminus assumed), the fraction remaining at 6 h in data set [1] and in data set [2] was over 80% in each case. The “interaction with Fe-NTA agarose resin” value in data set [3] is “interacts with the Fe-NTA agarose resin”.

The values are drawn from publication PMC12311725, “Identification of Ginsentide-like Peptides from Cacao Beans with Oxidative Stress Protection” (ACS Omega, 2025).
